According to US20110045101A1, “FUNGICIDAL SUBSTITUTED AZOLES” (E.I. Du Pont De Nemours and Company, priority 2009, published 2011):
Marks after values point to notes of the source that are not given here.

Assays:
Assay type in all cases: in vivo
Conditions in all cases: 100 = 100% disease control
[1] = tested on: Septoria tritici; assay: Test G: wheat leaf blotch on wheat seedlings, sprayed the day before inoculation, visual disease rating
Outline: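 Wheat seedlings were sprayed to run-off with test suspension (acetone/water plus surfactant), generally 200 ppm (≈500 g/ha), or 40 ppm where marked. Septoria tritici spores were inoculated the next day; plants were held 48 h at 24°C in saturated atmosphere, then 19 days at 20°C before visual disease rating.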

[2] = tested on: Alternaria solani; assay: Test D: tomato early blight, sprayed the day before inoculation, visual disease rating
Outline: (§1)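 Plants received a run-off spray at 200 ppm (equivalent to 500 g/ha) or, for starred values, 40 ppm. Formulation used acetone at 3% of volume in a 50/50 acetone/water mix carrying 250 ppm Trem® 014.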

[3] = tested on: Puccinia recondita f. sp. tritici; assay: Test H: wheat leaf rust, test suspension sprayed after inoculation of wheat seedlings, visual disease rating
Outline: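 Wheat seedlings inoculated with P. recondita spores, held 24 h saturated at 20 °C, then 2 days in growth chamber at 20 °C; compound suspension (acetone/water with Trem 014) sprayed to run-off afterwards. Rated visually; 200 ppm (≈500 g/ha) unless marked *, which denotes 40 ppm.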

[4] = tested on: Erysiphe graminis f. sp. tritici; assay: Test J: wheat powdery mildew on wheat seedlings, sprayed the day before inoculation, visual disease rating
Outline: as §1

[5] = tested on: Botrytis cinerea; assay: Test C: tomato Botrytis on tomato seedlings, sprayed the day before inoculation, visual disease rating
Outline: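 Rate: 200 ppm sprayed to run-off, corresponding to 500 g/ha; flagged values used 40 ppm. Vehicle was aqueous acetone (1:1) plus 250 ppm surfactant, compounds predissolved in acetone at 3% of volume. Plants were tomato seedlings.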

[6] = tested on: Septoria nodorum; assay: Test F: wheat glume blotch on wheat seedlings, sprayed the day before inoculation, visual disease rating
Outline: as §1

[7] = tested on: Puccinia recondita f. sp. tritici; assay: Test I: wheat leaf rust on wheat seedlings, sprayed the day before inoculation, visual disease rating
Outline: as §1

[8] = 200 ppm, 0 = no control relative to controls
[9] = 40 ppm (marked *), 0 = no control

Row | Compound | Test G disease control rating [1, 8] | Test D disease control rating [2, 8] | Test H disease control rating [3, 8] | Test J disease control rating [4, 8] | Test C disease control rating [5, 8] | Test F disease control rating [6, 8] | Test I disease control rating [7, 8] | other results
1 | COc1cc(F)c(-n2cnc(C)c2-c2ccc(Cl)cc2)c(F)c1 [compound 688] |  |  |  |  |  |  |  | Test G disease control rating ([1]; 40 ppm (marked *)): 97* %; Test D disease control rating ([2]; 40 ppm (marked *)): 33* %; Test H disease control rating ([3]; 40 ppm (marked *)): 8* %; Test J disease control rating ([4]; 40 ppm (marked *)): 78* %; Test C disease control rating ([5]; 40 ppm (marked *)): 100* %; Test F disease control rating ([6]; 40 ppm (marked *)): 0* %; Test I disease control rating ([7]; 40 ppm (marked *)): 0* %
2 | Fc1ccc(-n2c(Br)nc(Cl)c2-c2ccc(Cl)cc2)c(Cl)c1 [compound 329] | 94% | 99% | 0% | 99% | 99% | 0% | 90% | 
3 | COc1ccc(-c2c(Cl)ncn2-c2ccc(F)cc2)c(Cl)c1 [compound 726] | 99% | 99% | 0% | 89% | 99% | 0% | 80% | 
4 | CNc1nc(Cl)c(-c2c(F)cc(OC)cc2F)n1-c1ccc(Cl)cc1 [compound 692] | 99% | 70% | 8% | 79% | 100% | 0% | 0% | 
5 | COc1ccc(F)c(-c2c(Cl)nc(Cl)n2-c2ccc(Cl)nc2)c1F [compound 709] | 99% | 100% | 100% | 100% | 100% | 100% | 100% | 
6 | Cc1cccc(-c2c(C)ncn2-c2ccc(Cl)c(F)c2)n1 [compound 375] | 92% | 26% | 32% | 62% | 99% | 0% | 68% | 
7 | Cc1nc(Cl)c(-c2c(F)cccc2F)n1-c1ccc2ncccc2c1 [compound 468] |  |  |  |  |  |  |  | Test G disease control rating ([1]; 40 ppm (marked *)): 96* %; Test D disease control rating ([2]; 40 ppm (marked *)): 99* %; Test H disease control rating ([3]; 40 ppm (marked *)): 0* %; Test J disease control rating ([4]; 40 ppm (marked *)): 58* %; Test C disease control rating ([5]; 40 ppm (marked *)): 99* %; Test F disease control rating ([6]; 40 ppm (marked *)): 0* %; Test I disease control rating ([7]; 40 ppm (marked *)): 91* %
8 | COc1cc(F)c(-c2c(Br)nc(Cl)n2-c2ccc(OC)nc2)c(F)c1 [compound 710] | 98% | 100% | 99% | 98% | 100% | 100% | 100% | 
9 | COc1cc(F)c(-n2c(Cl)nc(CCl)c2-c2cccc(F)c2)c(F)c1 [compound 712] | 95% |  |  |  |  |  |  | Test D disease control rating ([2]; 40 ppm (marked *)): 57* %; Test H disease control rating ([3]; 40 ppm (marked *)): 7* %; Test J disease control rating ([4]; 40 ppm (marked *)): 61* %; Test C disease control rating ([5]; 40 ppm (marked *)): 100* %; Test F disease control rating ([6]; 40 ppm (marked *)): 0* %; Test I disease control rating ([7]; 40 ppm (marked *)): 86* %
10 | Fc1cccc(F)c1-c1c(Cl)nc(Cl)n1-c1ccc(Cl)nc1 [compound 592] | 96% | 100% | 100% | 100% | 100% | 100% | 100% | 
11 | COc1cncc(F)c1-c1c(Cl)nc(Cl)n1-c1ccc(Cl)c(F)c1 [compound 435] | 99% | 24% | 0% | 0% | 99% | 0% | 68% | 
12 | COc1cc(OC)cc(-n2c(C)nc(Cl)c2Cc2c(F)cc(F)cc2F)c1 [compound 534] | 2% | 0% | 0% | 0% | 38% | 0% | 0% | 
13 | COc1cc(F)c(-c2c(Cl)nc(C)n2-c2ccc(C)c(C#N)c2)c(F)c1 [compound 613] |  |  |  |  |  |  |  | Test G disease control rating ([1]; 40 ppm (marked *)): 99* %; Test D disease control rating ([2]; 40 ppm (marked *)): 100* %; Test H disease control rating ([3]; 40 ppm (marked *)): 15* %; Test J disease control rating ([4]; 40 ppm (marked *)): 21* %; Test C disease control rating ([5]; 40 ppm (marked *)): 99* %; Test F disease control rating ([6]; 40 ppm (marked *)): 64* %; Test I disease control rating ([7]; 40 ppm (marked *)): 97* %
14 | N#Cc1ccc(F)c(-c2c(Cl)nc(Cl)n2-c2ccc(Cl)cc2)c1F [compound 407] | 96% | 0% | 0% | 98% | 100% | 92% | 97% | 
15 | COc1ccc(F)c(-c2c(Br)nc(Br)n2-c2ccc(C)cc2)c1F [compound 511] | 99% | 99% | 0% | 100% | 99% | 99% | 99% | 
16 | Cc1nc(Cl)c(-c2ccc(Cl)cc2)n1Cc1cccc(Cl)c1 [compound 295] |  |  |  |  |  |  |  | Test G disease control rating ([1]; 200 ppm, 0 = no control): 94%; Test D disease control rating ([2]; 200 ppm, 0 = no control): 0%; Test H disease control rating ([3]; 200 ppm, 0 = no control): 0%; Test J disease control rating ([4]; 200 ppm, 0 = no control): 0%; Test C disease control rating ([5]; 200 ppm, 0 = no control): 99%; Test F disease control rating ([6]; 200 ppm, 0 = no control): 0%; Test I disease control rating ([7]; 200 ppm, 0 = no control): 80%
17 | COc1cc(F)c(-c2c(Cl)nc(Cl)n2-c2ccc(OC)c(Cl)c2)c(F)c1 [compound 646] |  |  |  |  |  |  |  | Test G disease control rating ([1]; 40 ppm (marked *)): 97* %; Test D disease control rating ([2]; 40 ppm (marked *)): 47* %; Test H disease control rating ([3]; 40 ppm (marked *)): 0* %; Test J disease control rating ([4]; 40 ppm (marked *)): 35* %; Test C disease control rating ([5]; 40 ppm (marked *)): 93* %; Test F disease control rating ([6]; 40 ppm (marked *)): 0* %; Test I disease control rating ([7]; 40 ppm (marked *)): 92* %
18 | Cc1nc(C)n(-c2ccc(F)cc2)c1-c1c(F)ccc(F)c1F [compound 417] |  |  |  |  |  |  |  | Test G disease control rating [1, 9]: 89* %; Test D disease control rating [2, 9]: 99* %; Test H disease control rating [3, 9]: 9* %; Test J disease control rating [4, 9]: 94* %; Test C disease control rating [5, 9]: 100* %; Test F disease control rating [6, 9]: 0* %; Test I disease control rating [7, 9]: 9* %
19 | CCc1cccc(-n2c(Cl)nc(Cl)c2-c2c(F)ccc(OC)c2F)c1 [compound 427] | 100% | 100% | 0% | 100% | 100% | 99% | 93% | 
20 | Fc1cc(F)c(-c2c(Cl)ncn2-c2ccc(OC(F)F)cc2)c(F)c1 [compound 585] | 100% | 99% | 0% | 99% | 100% | 0% | 100% | 
21 | CCOc1cc(F)c(-c2c(Cl)ncn2-c2cccc(F)c2)c(F)c1 [compound 703] | 99% | 100% | 39% | 97% | 100% | 100% | 98% | 
22 | Cc1nn(C)c(Cc2ccc(Cl)cc2)c1-c1ccc(F)cc1Cl [compound 344] | 95% | 0% | 17% | 99% | 100% | 0% | 89% | 
23 | COc1cc(F)c(-n2nnc(Br)c2-c2ccc(Cl)cc2)c(F)c1 [compound 474] | 90% | 57% | 0% | 95% | 99% | 0% | 36% | 
24 | Fc1cc(-n2c(Cl)nc(CCl)c2-c2ccc(Br)cn2)ccc1Cl [compound 357] | 50% | 0% | 0% | 0% | 63% | 100% | 55% | 
25 | COc1cc(F)c(-c2c(Cl)nc(Br)n2-c2ccc(C)c(Cl)c2)c(F)c1 [compound 542] |  |  |  |  |  |  |  | Test G disease control rating ([1]; 40 ppm (marked *)): 97* %; Test D disease control rating ([2]; 40 ppm (marked *)): 96* %; Test H disease control rating ([3]; 40 ppm (marked *)): 0* %; Test J disease control rating ([4]; 40 ppm (marked *)): 89* %; Test C disease control rating ([5]; 40 ppm (marked *)): 99* %; Test F disease control rating ([6]; 40 ppm (marked *)): 0* %; Test I disease control rating ([7]; 40 ppm (marked *)): 98* %
